# Data taken from patent publication US4038278A, “4-Aminopyrimidium derivatives and preparation thereof” (Eisai Co., Ltd., priority 1974, dated 1977).
# Assays:
# [1] = tested on: acetic acid Writhing syndrome; experiment: Anti-acetic acid Writhing test, oral, in mice; type: in vivo, mouse (dd strain)
# Description: Comparative tests for anti-acetic acid Writhing activity in mice were made to the Compound A of the present invention and 4-amino-pyrimidine-N^1 -phenacylbromide (hereinafter referred to as Compound C), using Aspirin as a control compound. The test compounds were respectively suspended in an of aqueous solution of containing five percent of gum Arabic. Eight male mice of dd strain weighing approximately 20 - 23g were used as the test animals. The mice were made to fast for about 19 hours.
# After 50 minutes or 170 minutes of administration of the test compounds, 0.1 ml of 0.7% acetic acid solution per 10 g. of the body weight of the test animal was injected intraperitoneally. Regarding the expansion of the hind paw of the mice induced during 15 minutes after the injection, a number of Writhing syndromes were encountered and recorded. Effects of the respective test compounds against the usual behavior of the mice were also observed. In the above test, 5% gum arabic solution per se was administered to the control animal.
# Various doses of the respective compounds were orally administered to eight mice. After 1 or 3 hours of the administration, a anti-acetic acid Writhing test was carried out.
# pH of the test compound = type: physicochemical; details: footnote of Table 5
# Shay Ulcer = experiment: Effect on Shay Ulcer in rats (17hr. pylorus-ligated rats); type: in vivo, rat (Wistar strain); details: for Inhibitory % (ulcer index) / Ulcer Index (mm): 300 (mg/μg [sic]); for Inhibitory % (ulcer index) / Ulcer Index (mm) / Inhibitory % (titrable acidity) / Inhibitory % (volume) / Titrable Acidity to pH 7.0 / Vol(ml) 100g B.W.: 17hr pylorus-ligated; for Ulcer Index (mm): Compound A n=2, individual values (0),(84), Compound C n=6, * P<0.05; for Inhibitory % (titrable acidity) / Inhibitory % (volume) / Titrable Acidity to pH 7.0 / Vol(ml) 100g B.W.: dose not given in Table 7; for Vol(ml) 100g B.W.: Compound A n=2, individual values (1.11),(3.29); for inhibitory effect against the appearance of ulcer in words: Tables 6 and 7
# Description: (§1) Using rats of Wistar strain as test animals weighing about 150 - 160 g., the anti-ulcer activities were measured in accordance with the conventional manner with respect to the following four (4) items.
# iii. Effect on Shay Ulcer in rats. (Method by 17hr. pylorusligated rats)
# Stress Ulcer (Immersion) = Stress Ulcer (Immersion) at 23-25° C. for 20 hrs; type: in vivo, rat (Wistar strain); details: for Ulcer Index (mm): * P<0.05 for Compound C; for effect on stress ulcer in words: 300 mg/Kg (p.o.)
# Description: as §1
# i. Stress Ulcer (Immersion) at 23° - 25° C. for 20 hrs.
# [2] = tested on: Carrageenin edema of the hind paw of the rat; experiment: Anti-edematic effect, Carrageenin paw edema method, oral, in rats; type: in vivo, rat (Wistar strain)
# Description: Test animal: For the respective compounds, four male rats of the Wistar strain weighing approximately 150g were used. The test animals were made to fast for approximately 16 hours.
# The anti-edematic test is carried out by determining the increase of edema due to the injection of […], in accordance with the paw edema method. [see Winter. C. A. et al; Proc. Soc. exp.
# The test compounds were respectively suspended in five percent of aqueous solution of gum Arabic, and the suspensions were orally administered to the rats one hour before the injection of the Carrageenin. Activities were determined by measuring the volume of the hind paw of the rat three hours after the administration of the Carrageenin.
# gastric secretion = experiment: Effect on gastric secretion in 4hr. pylorus-ligated rats (intraduodenal); type: in vivo, rat (Wistar strain)
# Description: as §1
# ii. Effect on gastric secretion in 4hr. pylorus-ligated rats. (Intraduodenal administration)
# stomach mucosa = experiment: Degree of gastric trouble (visible observation of stomach mucosa); type: in vivo, rat (Wistar strain)
# Excerpt: 2. Degree of gastric trouble
# The rats used in above test of anti-edematic effects were slaughtered, and their stomaches were visibly observed in accordance with the under-mentioned bases. Measurement values were decided by summing up the respective data of 4 tests of each group.
# Visible observation of the stomach mucosa
# No abnormality is recognized
# Slight edema, congestion or slight erosion
# Scattered or limitted erosion and spotted
# Heavy erosion, linear bleeding or enlarged
# [3] = tested on: gastric secretion stimulated by carbachol; experiment: Effect on gastric secretion stimulated by carbachol in acute gastric fistula rats; type: in vivo, rat (Wistar strain); details: FIG. 1
# Description: as §1
# iv. Effect on gastric secretion in acute gastric fistula rats.
# Comparative tests were carried out to measure the effects on gastric secretion stimulated by carbachol and the effects of Compounds A and C on eight rats of Wistar strain. The results are graphically shown in the accompanying FIG. 1.
# [4] = 3hr, 160 mg/Kg p.o., ** P<0.01 for Compound C
# [5] = 300 mg/Kg p.o., ** P<0.01 for Compound A
# [6] = 150 (mg/μg [sic]) intraduodenal
# [7] = 300 (mg/μg [sic]) intraduodenal
smiles,measurement,setting,value
"COc1ccc(C(=O)C[n+]2ccc(N)nc2)cc1 [Compound A, 4-aminopyrimidine N^1-(p-methoxyphenacyl)bromide]",No. of Writhing Syndrome (m±S.E.),"[1]; 1hr, 20 mg/Kg p.o.",41.4 ± 5.6
same,% of Protection,"[1]; 1hr, 40 mg/Kg p.o.",18%
same,No. of Writhing Syndrome (m±S.E.),"[1]; 1hr, 40 mg/Kg p.o.",33.1 ± 3.7
same,% of Protection,"[1]; 1hr, 80 mg/Kg p.o.",-15%
same,No. of Writhing Syndrome (m±S.E.),"[1]; 1hr, 80 mg/Kg p.o.",46.3 ± 3.6
same,No. of Writhing Syndrome (m±S.E.),"[1]; 1hr, 160 mg/Kg p.o.",29.4 ± 5.1
same,% of Protection,"[1]; 1hr, 160 mg/Kg p.o., * P<0.05",27%
same,No. of Writhing Syndrome (m±S.E.),"[1]; 1hr, 320 mg/Kg p.o.",17.1 ± 4.6
same,% of Protection,"[1]; 1hr, 320 mg/Kg p.o., ** P<0.01",58%
same,% of Protection,"[1]; 3hr, 20 mg/Kg p.o.",-13%
same,No. of Writhing Syndrome (m±S.E.),"[1]; 3hr, 20 mg/Kg p.o.",34.6 ± 5.4
same,% of Protection,"[1]; 3hr, 40 mg/Kg p.o.",43%
same,No. of Writhing Syndrome (m±S.E.),"[1]; 3hr, 40 mg/Kg p.o.",17.6 ± 4.8
same,% of Protection,"[1]; 3hr, 80 mg/Kg p.o.",25%
same,No. of Writhing Syndrome (m±S.E.),"[1]; 3hr, 80 mg/Kg p.o.",23.1 ± 6.6
same,No. of Writhing Syndrome (m±S.E.),"[1]; 3hr, 160 mg/Kg p.o.",21.8 ± 4.0
same,% of Protection,[1]; [4],29%
same,No. of Writhing Syndrome (m±S.E.),"[1]; 3hr, 320 mg/Kg p.o.",3.8 ± 2.7
same,% of Protection,"[1]; 3hr, 320 mg/Kg p.o., ** P<0.01",88%
same,pH of the test compound,pH of the test compound,6.3
same,Inhibitory % (ulcer index),Shay Ulcer,23.4%
same,Ulcer Index (mm),Shay Ulcer,42 mm
same,Inhibitory % (titrable acidity),Shay Ulcer,45.9%
same,Inhibitory % (volume),Shay Ulcer,54.1%
same,Titrable Acidity to pH 7.0,Shay Ulcer,188.2 ± 72.0 μ Eq/100g B.W.
same,Vol(ml) 100g B.W.,Shay Ulcer,2.20 ml/100g B.W.
same,inhibitory effect against the appearance of ulcer in words,Shay Ulcer,outstanding inhibitory effects
same,Inhibitory % (ulcer index),Stress Ulcer (Immersion); 150 mg/Kg p.o.,28.1%
same,Ulcer Index (mm),Stress Ulcer (Immersion); 150 mg/Kg p.o.,37.1 ± 5.9 mm
same,effect on stress ulcer in words,Stress Ulcer (Immersion),effective
same,Inhibitory % (ulcer index),Stress Ulcer (Immersion); 300 mg/Kg p.o.,70.3%
same,Ulcer Index (mm),Stress Ulcer (Immersion); [5],15.3 ± 6.1 mm
same,anti-edematic / anti-inflammatory effect in words,[2]; 100 mg/Kg p.o.,"equal to, or more than that of the Control compound"
same,Anti-edematic ratio (%),"[2]; 100 mg/kg p.o., rats, 3 hours after Carrageenin",50.0%
same,Comparison with Control Compound (anti-edematic ratio),"[2]; 100 mg/kg p.o., Control compound (Aspirin) = 100",140
same,Inhibitory % (titrable acidity),gastric secretion; [6],92.4%
same,Inhibitory % (volume),gastric secretion; [6],73.3%
same,Titrable acidity to PH 7.0,gastric secretion; [6],14.4 ± 4.2 μEq/100g B.W.
same,Vol/100 g B.W.(ml),gastric secretion; [6],0.5 ± 0.06 ml/100 g B.W.
same,Inhibitory % (titrable acidity),gastric secretion; [7],96.4%
same,Inhibitory % (volume),gastric secretion; [7],64.4%
same,Titrable acidity to PH 7.0,gastric secretion; [7],6.8 ± 3.4 μEq/100g B.W.
same,Vol/100 g B.W.(ml),gastric secretion; [7],0.72 ± 0.24 ml/100 g B.W.
same,degree of gastric trouble in words,stomach mucosa; 100 mg/Kg p.o.,extremely less than that of the Control compound
same,Degree of gastric trouble,"stomach mucosa; 100 mg/kg p.o., sum of scores (0-3) of 4 rats",2
"Nc1cc[n+](CC(=O)c2ccccc2)cn1 [Compound C, 4-amino-pyrimidine-N^1-phenacylbromide]",% of Protection,"[1]; 1hr, 20 mg/Kg p.o.",8%
same,No. of Writhing Syndrome (m±S.E.),"[1]; 1hr, 20 mg/Kg p.o.",36.9 ± 3.6
same,% of Protection,"[1]; 1hr, 40 mg/Kg p.o.",13%
same,No. of Writhing Syndrome (m±S.E.),"[1]; 1hr, 40 mg/Kg p.o.",34.9 ± 7.3
same,% of Protection,"[1]; 1hr, 80 mg/Kg p.o.",-12%
same,No. of Writhing Syndrome (m±S.E.),"[1]; 1hr, 80 mg/Kg p.o.",45.3 ± 1.7
same,No. of Writhing Syndrome (m±S.E.),"[1]; 1hr, 160 mg/Kg p.o.",29.9 ± 5.1
same,% of Protection,"[1]; 1hr, 160 mg/Kg p.o., * P<0.05",26%
same,No. of Writhing Syndrome (m±S.E.),"[1]; 1hr, 320 mg/Kg p.o.",15.9 ± 5.5
same,% of Protection,"[1]; 1hr, 320 mg/Kg p.o., ** P<0.01",61%
same,% of Protection,"[1]; 3hr, 20 mg/Kg p.o.",-35%
same,No. of Writhing Syndrome (m±S.E.),"[1]; 3hr, 20 mg/Kg p.o.",41.4 ± 5.0
same,% of Protection,"[1]; 3hr, 40 mg/Kg p.o.",27%
same,No. of Writhing Syndrome (m±S.E.),"[1]; 3hr, 40 mg/Kg p.o.",22.3 ± 5.3
same,% of Protection,"[1]; 3hr, 80 mg/Kg p.o.",-19%
same,No. of Writhing Syndrome (m±S.E.),"[1]; 3hr, 80 mg/Kg p.o.",36.4 ± 3.8
same,No. of Writhing Syndrome (m±S.E.),"[1]; 3hr, 160 mg/Kg p.o.",11.0 ± 3.3
same,% of Protection,[1]; [4],64%
same,No. of Writhing Syndrome (m±S.E.),"[1]; 3hr, 320 mg/Kg p.o.",12.9 ± 4.6
same,% of Protection,"[1]; 3hr, 320 mg/Kg p.o., ** P<0.01",58%
same,pH of the test compound,pH of the test compound,5.8
same,inhibitory effect to Maximum Response,[3],about 35%
same,Inhibitory % (ulcer index),Shay Ulcer,64.8%
same,Ulcer Index (mm),Shay Ulcer,19 ± 7 mm
same,Inhibitory % (titrable acidity),Shay Ulcer,-19.3%
same,Inhibitory % (volume),Shay Ulcer,34.5%
same,Titrable Acidity to pH 7.0,Shay Ulcer,414.8 ± 83.0 μ Eq/100g B.W.
same,Vol(ml) 100g B.W.,Shay Ulcer,3.14 ± 0.43 ml/100g B.W.
same,inhibitory effect against the appearance of ulcer in words,Shay Ulcer,outstanding inhibitory effects
same,Inhibitory % (ulcer index),Stress Ulcer (Immersion); 150 mg/Kg p.o.,23.4%
same,Ulcer Index (mm),Stress Ulcer (Immersion); 150 mg/Kg p.o.,53.1 ± 5.8 mm
same,effect on stress ulcer in words,Stress Ulcer (Immersion),effective
same,Inhibitory % (ulcer index),Stress Ulcer (Immersion); 300 mg/Kg p.o.,66.2%
same,Ulcer Index (mm),Stress Ulcer (Immersion); [5],23 ± 6.3 mm
same,Inhibitory % (titrable acidity),gastric secretion; [6],69.7%
same,Inhibitory % (volume),gastric secretion; [6],53.5%
same,Titrable acidity to PH 7.0,gastric secretion; [6],57.0 ± 22.4 μEq/100g B.W.
same,Vol/100 g B.W.(ml),gastric secretion; [6],0.94 ± 0.20 ml/100 g B.W.
same,Inhibitory % (titrable acidity),gastric secretion; [7],88.2%
same,Inhibitory % (volume),gastric secretion; [7],69.3%
same,Titrable acidity to PH 7.0,gastric secretion; [7],22.2 ± 7.6 μEq/100g B.W.
same,Vol/100 g B.W.(ml),gastric secretion; [7],0.62 ± 0.08 ml/100 g B.W.
